# Read-outs that look alike come from different tables or passages of the source.
# Columns and labels:
# [1] = system: PD1-ss+10aa/Gaussia Luciferase; experiment: Dox-Induced PD1-ss-Gluc Assay; format: cell-based; conditions: 24 hr Dox induction, 293FRT/TO cells, read-out: 24 hr Dox Inducible PD1ssGluc 293FRT/TO: Mean IC50
# How it was run: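 Flp-In 293 T-REx, stable line; Tet-regulated PD1-ss+10aa fused to Gaussia luciferase; plated day prior; cpd + doxycycline in DMSO/media; 37 °C, 5% CO2.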
# [2] = system: TNFα-FL/Gaussia Luciferase; experiment: Dox Induced TNFα-FL-Gluc Assay; format: cell-based; conditions: for IC50: 24 hr Dox induction, 293FRT/TO cells, read-out: 24 hr Dox Inducible TNFaFLGluc 293FRT/TO: Mean IC50; for 24 hr Dox Inducible TNFaFLGluc 293FRT/TO: TNF/PD1: ratio of TNFaFLGluc IC50 to PD1ssGluc IC50
# How it was run: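 Cells are seeded one day ahead, then treated with compound plus doxycycline at 37 °C, 5% CO2. The stable Flp-In 293 T-REx line expresses full-length TNFα (amino acids 1-233) with Gaussia luciferase fused to its 3′ end, inducibly via T-REx.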
# [3] = system: HER3-ss+4aa/Gaussia Luciferase; experiment: Dox-Induced Her3-ss-Gluc Assay; format: cell-based; conditions: 24 hr Dox induction, 293FRT/TO cells, read-out: 24 hr Dox Inducible Her3(ss + 4)Gluc 293FRT/TO: Mean IC50
# How it was run: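 Expression of a Gaussia luciferase reporter carrying the HER3 signal sequence plus 4 amino acids is induced by doxycycline in stably transfected Flp-In 293 T-REx cells. Compounds are added with doxycycline at 37° C., 5% CO2. Undefined stereocentres denote stereoisomer mixtures.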
# [4] = system: IL-2-FL/Gaussia Luciferase; experiment: Dox Induced IL2-FL-Gluc Assay; format: cell-based; conditions: for IC50: 24 hr Dox induction, 293FRT/TO cells, read-out: 24 hr Dox Inducible IL2FLGluc 293FRT/TO: Mean IC50; for 24 hr Dox Inducible IL2FLGluc 293FRT/TO: IL2/PD1: ratio of IL2FLGluc IC50 to PD1ssGluc IC50
# How it was run: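 Reporter is Gaussia luciferase fused to the 3′ end of full-length IL-2 (aa 1-153), expressed from a doxycycline-inducible T-REx construct in stably selected Flp-In 293 cells. Compounds were co-added with doxycycline and incubated at 37° C, 5% CO2.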
# [5] = system: multiple myeloma cell line NCI-H929; experiment: H929 Cell Viability Assay; format: cell-based, human; conditions: Homo sapiens, NCI-H929, 48 h, NCI-H929 cells, Celltiter-Glo
# How it was run: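 Plate the myeloma cells in RPMI 1640 with 10% FBS, add serially diluted compound, incubate for 48 hours at 37° C, then add CellTiter-Glo and read luciferase signal.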
# [6] = system: multiple myeloma cell line U266B1; experiment: U266 Cell Viability Assay; format: cell-based, human; conditions: Homo sapiens, U-266, 48 h, U266B1 cells, Celltiter-Glo
# How it was run: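 48 h treatment, 37° C./5% CO2, RPMI 1640 + 10% FBS; viability by CellTiter-Glo luminescence.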
# [7] = Liver Microsome Stability Assay (rat); conditions: rat liver microsomes, with NADPH, 1.0 uM compound
# Protocol: (§1) Stability of a compound was assessed in the presence of liver microsomes from various sources—mouse, rat, monkey and human liver microsomes. 1.0 uM compound, 0.4% DMSO in 0.1 M Potassium Phosphate with 1.0 mg/mL liver microsomes, were incubated at 37° C. with or without 1 mM NADPH. The samples were quenched at 0, and 30 minutes.
# [8] = Liver Microsome Stability Assay (mouse); conditions: mouse liver microsomes, with NADPH, 1.0 uM compound
# Protocol: as §1
# [9] = Liver Microsome Stability Assay (human); conditions: human liver microsomes, with NADPH, 1.0 uM compound
# Protocol: as §1
# [10] = Liver Microsome Stability Assay (monkey); conditions: monkey liver microsomes, with NADPH, 1.0 uM compound
# Protocol: as §1
IC50 [1] [nM],IC50 [2] [nM],IC50 [3] [nM],IC50 [4] [nM],EC50 [5] [nM],EC50 [6] [µM],Liver Microsome Stability (Multiple Species): Rat - % Remaining after 30 min w/NADPH [7] [%],Liver Microsome Stability (Multiple Species): Mouse - % Remaining after 30 min w/NADPH [8] [%],Liver Microsome Stability (Multiple Species): Human - % Remaining after 30 min w/NADPH [9] [%],Liver Microsome Stability (Multiple Species): Monkey - % Remaining after 30 min w/NADPH [10] [%],IC50 ([1]; mean) [nM],IC50 ([2]; mean) [nM],IC50 ([3]; mean) [nM],IC50 ([4]; mean) [nM],SMILES,24 hr Dox Inducible TNFaFLGluc 293FRT/TO: TNF/PD1 [2],24 hr Dox Inducible IL2FLGluc 293FRT/TO: IL2/PD1 [4],24 hr Dox Inducible IL2FLGluc 293FRT/TO: IL2/PD1 ([4]; '<=>' given where both are I.A.)
398,> 25000,3630,> 16600,> 25000,> 25,0.15,0.36,0.18,0.44,–,–,–,–,"Cc1coc(/C=C/c2csc(NC(=O)c3cccn3Cc3ccncc3)n2)n1 [Compound B41, (E)-N-(4-(2-(4-methyloxazol-2-yl)vinyl)thiazol-2-yl)-1-(pyridin-4-ylmethyl)-1H-pyrrole-2-carboxamide]",>62.8,>42,–
6040,> 25000,> 25000,> 25000,> 25000,> 25,23.9,55.7,0.43,0.69,–,–,–,–,"N#CCCn1cnc(/C=C/c2csc(NC(=O)c3cccn3Cc3ccnc(F)c3)n2)c1 [Compound B108, (E)-N-(4-(2-(1-(2-cyanoethyl)-1H-imidazol-4-yl)vinyl)thiazol-2-yl)-1-((2-fluoropyridin-4-yl)methyl)-1H-pyrrole-2-carboxamide]",>4.14,>4.1,–
129,> 25000,13000,19900,> 25000,> 25,4.96,5.93,1.81,1.07,–,–,–,–,"O=C(Nc1nc(/C=C/c2cocn2)cs1)c1cccn1Cc1ccncc1 [Compound B1, (E)-N-(4-(2-(oxazol-4-yl)vinyl)thiazol-2-yl)-1-(pyridin-4-ylmethyl)-1H-pyrrole-2-carboxamide]",>194,160,–
–,–,–,–,> 25000,> 25,83.1,52.3,65.2,76.1,> 25000,> 25000,> 25000,> 25000,O=C(O)CCCCn1cccc1C(=O)Nc1nc([C@H]2CCCN2c2ccccc2)cs1 [Compound C11],–,–,1

# The remaining lines, values behind:
SMILES,IC50 [1] [nM],IC50 [2] [nM],IC50 [3] [nM],IC50 [4] [nM],EC50 [5] [nM],EC50 [6] [µM],Liver Microsome Stability (Multiple Species): Rat - % Remaining after 30 min w/NADPH [7] [%],Liver Microsome Stability (Multiple Species): Mouse - % Remaining after 30 min w/NADPH [8] [%],Liver Microsome Stability (Multiple Species): Human - % Remaining after 30 min w/NADPH [9] [%],Liver Microsome Stability (Multiple Species): Monkey - % Remaining after 30 min w/NADPH [10] [%],IC50 ([1]; mean) [nM],IC50 ([2]; mean) [nM],IC50 ([3]; mean) [nM],IC50 ([4]; mean) [nM],24 hr Dox Inducible TNFaFLGluc 293FRT/TO: TNF/PD1 [2],24 hr Dox Inducible IL2FLGluc 293FRT/TO: IL2/PD1 [4],24 hr Dox Inducible IL2FLGluc 293FRT/TO: IL2/PD1 ([4]; '<=>' given where both are I.A.)
"O=C(Nc1nc([C@H]2CCCN2c2ccc(OC3CCOCC3)cc2)cs1)c1cccn1Cc1ccncc1 [Compound A1, (R)-1-(pyridin-4-ylmethyl)-N-(4-(1-(4-((tetrahydro-2H-pyran-4-yl)oxy)phenyl)pyrrolidin-2-yl)thiazol-2-yl)-1H-pyrrole-2-carboxamide]",26.9,369,58.4,53.8,1230,> 25,50,24.8,14.3,6.47,–,–,–,–,13.7,2,–
"Cc1cnccc1Cn1cccc1C(=O)Nc1nc([C@H]2CCCN2c2ccccc2)cs1 [Compound A53, (R)-1-((3-methylpyridin-4-yl)methyl)-N-(4-(1-phenylpyrrolidin-2-yl)thiazol-2-yl)-1H-pyrrole-2-carboxamide]",23.7,301,31.5,54.3,20600,> 25,0.63,3.47,1.11,0.33,–,–,–,–,12.7,2.3,–
"CC(=O)NCc1ccc(N2CCC[C@@H]2c2csc(NC(=O)c3cccn3Cc3ccncc3)n2)cc1 [Compound A45, (R)-N-(4-(1-(4-(acetamidomethyl)phenyl)pyrrolidin-2-yl)thiazol-2-yl)-1-(pyridin-4-ylmethyl)-1H-pyrrole-2-carboxamide]",16.4,220,34.3,55.5,425,> 25,0.29,0.76,0.08,0.1,–,–,–,–,13.4,3.4,–
CC(=O)N(C)c1ccc(N2CCC[C@@H]2c2csc(NC(=O)c3cccn3Cc3ccncc3)n2)cc1 [Compound A47],43.6,554,83.5,82.3,1210,> 25,1.17,0.02,1.82,0.06,–,–,–,–,12.7,1.9,–
"CC(=O)N1CCC(Oc2ccc(N3CCC[C@@H]3c3csc(NC(=O)c4cccn4Cc4ccnc(F)c4)n3)c(F)c2)CC1 [Compound A100, (R)-N-(4-(1-(4-((1-acetylpiperidin-4-yl)oxy)-2-fluorophenyl)pyrrolidin-2-yl)thiazol-2-yl)-1-((2-fluoropyridin-4-yl)methyl)-1H-pyrrole-2-carboxamide]",22.8,195,32,34.2,442,> 25,14.8,3.12,3.16,0.24,–,–,–,–,8.57,1.5,–
